This passage reports GI50 and TGI results from PubChem BioAssay (NCI).

Assay in all cases: inhibition of tumour cell growth, NCI panel, 48 h
For assay [1], the system named is HCC-2998 colon.
The subject of assay [2] is HCT-116 colon.
Assay [3] relates to HL-60(TB) leukemia.
Assay [4] deals with M14 melanoma.
Assay [5] has as its system NCI-H522 lung.
The test system of assay [6] is OVCAR-3 ovarian.
Assay [7] relates to SK-MEL-28 melanoma.
The test system of assay [8] is SNB-19 CNS.
Assay [9] has as its system T-47D breast.
Assay [10] concerns CCRF-CEM leukemia.

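All cell lines were grown in 96-well plates and treated with compound for 48 hours. GI50 = concentration required for 50% inhibition of growth. TGI marks complete inhibition of growth.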

As for `O=C(O)c1c(=O)cccc2ssc12`, the GI50 in assay [1] was 1.8 µM; in assay [2] it was 1.62 µM; in [3], 1.81 µM; in [4] it was 1.92 µM; in [5] it was 1.61 µM; in assay [6] it was 1.81 µM. The GI50 is 1.69 µM in assay [7], 1.92 µM in [8] and 2.15 µM in [9]. Also, the TGI in assay [1] was determined as 3.36 µM; in assay [2], 3.32 µM; in assay [3], 4.43 µM; in assay [4], 4.07 µM; in assay [5] it was 3.24 µM; in [6] it was 3.38 µM. Besides, the TGI was determined as 3.25 µM in [7], 3.79 µM in assay [8] and 5.24 µM in assay [9].

Take `CCOC(=O)C1=C(C)N(Cc2ccc(Cl)cc2Cl)C2(O)C=CC(=O)C3=C(O)c4ccccc4C(=O)C312` (centres undefined): the GI50 in [1] was 11.2 µM; in [2], 3.19 µM; in assay [4] it was 3.97 µM; in [5], 11.4 µM; in assay [6], 2.2 µM; in assay [7] it was 10.6 µM. The values for the GI50 in assay [8] and in [9] were 9.02 µM and 6.83 µM, respectively. Also, the TGI in assay [1] is 28.2 µM; in assay [2] it was 11.6 µM; in [4], 69.3 µM; in assay [5], > 100 µM; in [6] it was 6 µM; in assay [7], 40.1 µM. The values for the TGI in assay [8] and in assay [9] were 78.7 µM and 39.7 µM, respectively.

For `CC1(C)NCCC[C@]2(C)[C@H]3CC[C@@H]4[C@H]5[C@H](C(=O)/C=C/c6ccccn6)CC[C@]5(CO)CC[C@@]4(C)[C@]3(C)CC[C@@H]12`, the GI50 was 2.71 µM in assay [10]; 1.72 µM in [2]; 1.84 µM in [3]; 1.81 µM in assay [4]; 1.81 µM in assay [5]; 2.14 µM in assay [6]. For the same compound, the GI50 in assay [7] was 3.75 µM; in assay [8] it was 3.92 µM; in assay [9] it was 2.78 µM. Further, the TGI was determined as 11.4 µM in assay [10]; 3.15 µM in [2]; 4.7 µM in assay [3]; 3.56 µM in assay [4]; 4.45 µM in assay [5]; 4.89 µM in assay [6]. Further, the TGI in assay [7] is 15.7 µM; in [8], 19.8 µM; in [9], 16 µM.

`CCCCCCCCCNC(=O)/C=C/c1ccc(O)c(O)c1`: the GI50 in assay [10] was 0.0426 µM; in assay [1], 16 µM; in assay [2], 4.94 µM; in assay [4], 12.2 µM; in [5], 0.833 µM; in [6] it was 5.95 µM. Further, the values for the GI50 in assay [7], in assay [8] and in assay [9] were 19.7 µM, 21.4 µM and 15 µM, respectively. Further, the TGI in assay [10] is 1.75 µM; in [1], 31.4 µM; in [2], 18.4 µM; in assay [4] it was 26.7 µM; in [5] it was 9.91 µM; in assay [6], 24.3 µM. For the same compound, the TGI in [7] is > 100 µM; in assay [8] it was 50.3 µM; in [9], 59.9 µM.

As to `O=C(Nc1cccc(-c2ccc(Cl)c(C(F)(F)F)c2)c1)C1CCN(Cc2cccc3cccnc23)CC1`, the GI50 was 2.19 µM in [10]; 1.43 µM in assay [1]; 1.26 µM in [2]; 1.64 µM in [4]; 1.73 µM in assay [5]; 1.72 µM in [6]. In addition, the figures for the GI50 in [7], in assay [8] and in assay [9] were 1.75 µM, 1.74 µM and 1.61 µM, respectively. The TGI in assay [10] was found to be 5.85 µM; in [1] it was 2.85 µM; in [2], 2.76 µM; in assay [4] it was 3.16 µM; in [5], 3.68 µM; in assay [6], 3.17 µM. Besides, the TGI is 3.14 µM in assay [7], 3.18 µM in assay [8] and 3.6 µM in assay [9].

As to `Nc1ccc(-c2cccs2)cc1NC(=O)c1ccc(CCCC(=O)Nc2ccc(C3CC3N)cc2)cc1` (centres undefined), the GI50 in [3] was 2.54 µM; in assay [6] it was 1.48 µM; in [9], 1.75 µM. Besides, the figures for the TGI in assay [3], in [6] and in assay [9] were > 100 µM, 3.14 µM and 4.82 µM, respectively.

For the compound `CC(=O)O[C@@]1(C)[C@@H](C)C(=O)O[C@@H]2CCN3CC=C(COC(=O)[C@]1(C)O)[C@H]23`, the TGI in [10], in assay [1], in assay [2], in [3], in assay [4] and in assay [5] was > 100 µM throughout. Moreover, the TGI in assay [6], in assay [7] and in [8] was > 100 µM throughout.

For `O=C(N/N=C1\C(=O)N(c2nccs2)C(=O)C(=O)C1c1nc2ccccc2s1)c1ccccc1O` (centres undefined), the TGI in assay [10] was > 100 µM; in assay [1], > 100 µM; in assay [2], > 100 µM; in assay [3], > 100 µM; in [4] it was > 100 µM; in assay [5] it was 96.9 µM. Besides, the TGI in assay [6], in assay [7] and in assay [8] was > 100 µM throughout.

For `C/C=C(\CCOS(=O)(=O)c1ccc(C)cc1)[Si](C)(C)C`, the TGI was 27.3 µM in [10]; > 100 µM in [1]; > 100 µM in [2]; > 100 µM in assay [3]; > 100 µM in assay [4]; > 100 µM in assay [5]. Further, the TGI in assay [6], in assay [7] and in assay [8] was > 100 µM throughout.

For `O=C(NO)[C@@H](Cc1ccccc1)NS(=O)(=O)c1ccc(-c2ccccc2)cc1`, the GI50 is > 25 µM in assay [10]; > 25 µM in assay [1]; 11.7 µM in [2]; > 25 µM in assay [4]; > 25 µM in assay [5]; 13.6 µM in assay [6]. The GI50 in assay [7], in assay [8] and in assay [9] was > 25 µM throughout. Moreover, the TGI in assay [10], in assay [1], in [2], in assay [4], in assay [5] and in [6] was > 25 µM each time. Also, the TGI in [7], in assay [8] and in assay [9] was > 25 µM each time.
